The IC50 is the concentration that gives 50% inhibition. The low end stands for higher potency, the high end for lower potency.

The assay deals with T1, 3-hydroxy-3-methylglutaryl-coenzyme A reductase (Rattus norvegicus, UniProt P51639).
T1 sequence (P51639 whole entry): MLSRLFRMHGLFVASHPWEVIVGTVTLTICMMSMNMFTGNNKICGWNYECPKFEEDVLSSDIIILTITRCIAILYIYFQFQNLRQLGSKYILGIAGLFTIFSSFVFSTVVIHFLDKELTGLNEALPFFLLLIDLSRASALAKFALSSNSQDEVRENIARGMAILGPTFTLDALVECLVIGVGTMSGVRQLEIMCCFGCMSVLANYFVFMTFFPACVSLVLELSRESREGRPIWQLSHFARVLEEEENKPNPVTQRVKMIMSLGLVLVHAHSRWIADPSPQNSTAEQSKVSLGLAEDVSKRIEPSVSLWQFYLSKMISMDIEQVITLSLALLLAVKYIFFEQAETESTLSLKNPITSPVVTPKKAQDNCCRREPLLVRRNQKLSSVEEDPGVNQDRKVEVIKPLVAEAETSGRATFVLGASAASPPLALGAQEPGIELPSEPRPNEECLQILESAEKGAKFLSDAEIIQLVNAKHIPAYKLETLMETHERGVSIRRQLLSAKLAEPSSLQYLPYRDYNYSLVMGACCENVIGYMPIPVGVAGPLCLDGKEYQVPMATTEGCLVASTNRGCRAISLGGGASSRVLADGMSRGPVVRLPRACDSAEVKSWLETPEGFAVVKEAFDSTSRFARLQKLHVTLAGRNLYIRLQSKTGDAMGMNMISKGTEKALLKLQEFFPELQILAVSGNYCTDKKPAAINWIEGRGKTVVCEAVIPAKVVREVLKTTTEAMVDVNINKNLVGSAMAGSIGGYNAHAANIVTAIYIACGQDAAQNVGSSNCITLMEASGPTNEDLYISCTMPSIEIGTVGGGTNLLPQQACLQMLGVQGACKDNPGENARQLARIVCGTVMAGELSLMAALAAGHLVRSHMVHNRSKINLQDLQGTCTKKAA
Kind of assay: Inhibition of solubilized, purified rat liver HMG-CoA reductase.
Consider `C[C@H]1C=C2C=C[C@H](C)[C@H](CC[C@@H]3C[C@@H](O)CC(=O)O3)[C@H]2[C@@H](OC(=O)Cc2ccccc2)C1`, for which the IC50 stood at 19 nM.

Regarding `CC[C@H](C)C(=O)O[C@H]1C[C@@H](C)C=C2C=C[C@H](C)[C@H](CC[C@@H]3C[C@@H](O)CC(=O)O3)C21` (some centres undefined), it took 2.2 nM to reach half-maximal inhibition (IC50).

For the compound `CCC(C)(CC)C(=O)O[C@H]1C[C@@H](C)C=C2C=C[C@H](C)[C@H](CC[C@@H]3C[C@@H](O)CC(=O)O3)C21` (some centres undefined), the IC50 turned out to be 1.4 nM. Under `CC(C)=CC(=O)O[C@H]1C[C@@H](C)C=C2C=C[C@H](C)[C@H](CC[C@@H]3C[C@@H](O)CC(=O)O3)C21` (some centres undefined) stands 27.3 nM.

For `C[C@H]1C=C2C=C[C@H](C)[C@H](CC[C@@H]3C[C@@H](O)CC(=O)O3)C2[C@@H](OC(=O)C23CC4CC(CC(C4)C2)C3)C1` (some centres undefined), the IC50 stood at 3.8 nM. Under `C[C@H]1C=C2C=C[C@H](C)[C@H](CC[C@@H]3C[C@@H](O)CC(=O)O3)C2[C@@H](OC(=O)Oc2ccccc2)C1` (some centres undefined) stands 83 nM. With `C[C@H]1C=C2C=C[C@H](C)[C@H](CC[C@@H]3C[C@@H](O)CC(=O)O3)C2[C@@H](OC(=O)c2ccc(F)cc2)C1` (some centres undefined) the figure was 37 nM; with `CC(C)CC(=O)O[C@H]1C[C@@H](C)C=C2C=C[C@H](C)[C@H](CC[C@@H]3C[C@@H](O)CC(=O)O3)C21` (some centres undefined), 5.4 nM; with `C[C@H]1C=C2C=C[C@H](C)[C@H](CC[C@@H]3C[C@@H](O)CC(=O)O3)C2[C@@H](OC(=O)C(C)(C)C)C1` (some centres undefined), 2.7 nM. In the case of `CC[C@@H](C)C(=O)O[C@H]1C[C@@H](C)C=C2C=C[C@H](C)[C@H](CC[C@@H]3C[C@@H](O)CC(=O)O3)C21` (some centres undefined), the IC50 turned out to be 2.2 nM. Under `CC(CC(=O)O[C@H]1C[C@@H](C)C=C2C=C[C@H](C)[C@H](CC[C@@H]3C[C@@H](O)CC(=O)O3)C21)C(F)(F)F` (some centres undefined) stands 3.5 nM; under `C[C@H]1C=C2C=C[C@H](C)[C@H](CC[C@@H]3C[C@@H](O)CC(=O)O3)C2[C@@H](OC(=O)C2CC2)C1` (some centres undefined), 38.6 nM. Under `C=C(C)CC(=O)O[C@H]1C[C@@H](C)C=C2C=C[C@H](C)[C@H](CC[C@@H]3C[C@@H](O)CC(=O)O3)C21` (some centres undefined) stands 2.9 nM; under `CCCC(CC)(CC)C(=O)O[C@H]1C[C@@H](C)C=C2C=C[C@H](C)[C@H](CC[C@@H]3C[C@@H](O)CC(=O)O3)C21` (some centres undefined), 1.9 nM; under `CCC(CC)(CC)C(=O)O[C@H]1C[C@@H](C)C=C2C=C[C@H](C)[C@H](CC[C@@H]3C[C@@H](O)CC(=O)O3)C21` (some centres undefined), 1.4 nM. Under `CC(=O)O[C@H]1C[C@@H](C)C=C2C=C[C@H](C)[C@H](CC[C@@H]3C[C@@H](O)CC(=O)O3)C21` (some centres undefined) stands 269 nM; under `CCCCC(=O)O[C@H]1C[C@@H](C)C=C2C=C[C@H](C)[C@H](CC[C@@H]3C[C@@H](O)CC(=O)O3)C21` (some centres undefined), 8.7 nM; under `CCCCCCCCCC(=O)O[C@H]1C[C@@H](C)C=C2C=C[C@H](C)[C@H](CC[C@@H]3C[C@@H](O)CC(=O)O3)C21` (some centres undefined), 295 nM. The compound `CC(C)C(=O)O[C@H]1C[C@@H](C)C=C2C=C[C@H](C)[C@H](CC[C@@H]3C[C@@H](O)CC(=O)O3)C21` (some centres undefined) returned an IC50 of 7.7 nM.

For the origin of these results see ChEMBL document CHEMBL1123526, “3-Hydroxy-3-methylglutaryl-coenzyme A reductase inhibitors. 4. Side chain ester derivatives of mevinolin” (J Med Chem, 1986).
